In US6344452B1, “1,5-benzodiazepine derivatives” (Zeria Pharmaceuticals Co., Ltd., priority 1998, dated 2002):

Columns and labels:
[1] = system: pentagastrin-stimulated acid secretion; assay: Inhibition test on pentagastrin-stimulated acid secretion in rats; type: in vivo, rat; details: SD rats, acid output 1st to 4th hour after administration
Description: <Inhibition Test on Pentagastrin-stimulated Acid Secretion in Rats>
Male Sprague-Dawley (SD) strain rats were used. Under anesthesia with ethyl ether, operations were performed on each rat to ligate the gastric antrum and also to arrange an intraduodenal catheter and a gastric fistula tube. After completion of the operations, the rat was placed in a Ballmann cage, and pentagastrin was continuously injected at 15 μg/kg/hr through the caudal vein. Each test compound was formed into a suspension by using a 0.5% carboxymethylcellulose sodium solution (hereinafter called “the solvent”). Upon an elapsed timeof 1 hour from the initiation of the injection of pentagastrin, the solvent or the test compound was administered through the intraduodenal catheter. The acidity of sampled gastric juice was measured using an autotitrater, and a product of the acidity and the amount of the gastric juice was recorded as an acid output. […] [formula]

CCK-A receptor = biological target: T1, CCK-A receptor (Cavia porcellus, UniProt Q63931); assay: CCK-A receptor binding test ([3H]L-364,718, guinea pig pancreas); details: [3H]L-364,718 0.2 nM, guinea pig pancreas membranes, 25° C., 2 hours; read-out: binding inhibition constant (Ki value)
T1 construct: The homogenate was provided as a receptor sample; from tissue; host or cells: guinea pig pancreas membrane homogenate
T1 sequence (Q63931 1-430): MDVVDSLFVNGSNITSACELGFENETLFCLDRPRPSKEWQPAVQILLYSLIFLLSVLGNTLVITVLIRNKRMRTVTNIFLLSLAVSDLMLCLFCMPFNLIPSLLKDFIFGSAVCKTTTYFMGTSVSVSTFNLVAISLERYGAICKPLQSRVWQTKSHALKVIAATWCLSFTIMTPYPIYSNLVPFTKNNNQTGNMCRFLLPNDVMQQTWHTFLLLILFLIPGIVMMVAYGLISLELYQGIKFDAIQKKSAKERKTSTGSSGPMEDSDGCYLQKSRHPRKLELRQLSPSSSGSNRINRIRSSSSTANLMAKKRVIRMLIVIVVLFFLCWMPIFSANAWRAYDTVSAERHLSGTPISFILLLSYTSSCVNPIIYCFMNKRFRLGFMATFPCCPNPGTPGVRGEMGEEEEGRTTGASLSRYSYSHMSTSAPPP
Description: <CCK-A Receptor Binding Test>
From a male Hartley strain guinea pig, the pancreas was removed. The pancreas was homogenized with 10 mM PIPES buffer (pH 6.5, hereinafter called “the solvent”) in an amount 40 times as much as the weight of the pancreas. The solvent contained EGTA (1 mM), magnesium chloride (30 mM), bacitracin (0. 02%) , soybean trypsin inhibitor (0.02%), and sucrose (0.3 M). After filtered through gauze, the homogenate was centrifuged under 50,000 g for 10 minutes. To the resulting pellet, the solvent was added again in an amount as much as the pellet, followed by centrifugation. To the thus-obtained pellet the solvent was added in an amount 40 times as much as the pellet, and the pellet was homogenized. […]
As a binding experiment, a solution (50 μL) of [^3H]L-364,718 (devazepide), said solution having a final concentration of 0.2 nM, and the receptor sample (protein content: 50 μg/tube) (900 μL) were added to the solvent, an L-364,718 solution of a final concentration of 1 μM or a test compound solution (50 μL), followed by a reaction at 25° C. for 2 hours. […] ACS-II scintillator was added to the filter and, after the filter was left over for 24 hours, the radioactivity concentration on the filter was measured by a liquid scintillation counter. […] From the specific binding of [^3H]L-364,718, the binding inhibition constant (Ki value) of the compound was calculated.

CCK-B receptor = biological target: T2, CCK-B receptor (Cavia porcellus, UniProt H0VZC5); assay: CCK-B receptor binding test ([3H]CCK-B, guinea pig cerebral cortex); details: [3H]CCK-B 1.0 nM, guinea pig cerebral cortex membranes, 25° C., 2 hours; read-out: binding inhibition constant (Ki value)
T2 construct: the homogenate was provided as a receptor sample; from tissue; host or cells: guinea pig cerebral cortex membrane homogenate
T2 sequence (H0VZC5 1-426): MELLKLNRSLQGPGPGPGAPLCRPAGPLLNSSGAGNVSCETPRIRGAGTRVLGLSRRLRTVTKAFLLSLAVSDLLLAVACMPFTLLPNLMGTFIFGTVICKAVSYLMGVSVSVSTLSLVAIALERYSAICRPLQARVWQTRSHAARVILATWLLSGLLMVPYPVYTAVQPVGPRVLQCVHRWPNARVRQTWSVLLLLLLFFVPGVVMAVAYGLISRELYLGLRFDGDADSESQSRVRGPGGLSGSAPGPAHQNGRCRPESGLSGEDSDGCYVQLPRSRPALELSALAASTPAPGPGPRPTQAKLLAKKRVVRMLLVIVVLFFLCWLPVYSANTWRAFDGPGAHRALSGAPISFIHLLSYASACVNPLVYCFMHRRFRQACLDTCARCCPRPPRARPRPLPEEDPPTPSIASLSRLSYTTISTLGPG
Description: <CCK-B Receptor Binding Test>
From a male Hartley strain guinea pig, the cerebral cortex was removed. After the cerebral cortex was homogenized with 50 mM tris-HCl buffer (pH 7.4) in an amount 50 times as much as the weight of the cerebral cortex, the homogenate was centrifuged under 50,000 g for 10 minutes. With respect to the resulting pellet, addition of the same buffer in the same amount and centrifugation were repeated twice. […]
As a binding experiment, a [^3H]CCK-B solution of a final concentration of 1.0 nM (50 μL) and the receptor sample (protein content: 800 μg/tube) (900 μL) were added to the solvent, the CCK-B solution of a final concentration of 1.0 μM or a test compound solution (50 μL), followed by a reaction at 25° C. for 2 hours. […] ACS-II scintillator was added to the filter and, after the filter was left over for 24 hours, the radioactivity concentration on the filter was measured by a liquid scintillation counter. A binding in the presence of CCK-B (1 μM) was recorded as a non-specific binding, while a value obtained by subtracting the non-specific binding from a full binding, which had been obtained using the solvent instead of CCK-B, was recorded as a specific binding. From the specific binding of [^3H]CCK-B, the binding inhibition constant (Ki value) of the compound was calculated.

[2] = system: pentagastrin-stimulated acid secretion; assay: Inhibition test on pentagastrin-stimulated acid secretion in beagles with Heidenhain pouch; type: in vivo, beagle; details: 1 mg/kg oral (gelatin capsules), acid output 1st to 4th hour after administration
Description: <Inhibition Test on Pentagastrin-stimulated Acid Secretion in Beagles with Heidenhain Pouch>
Male beagles with Heidenhain pouch formed beforehand were used. Pentagastrin was continuously and intravenously injected at 4 μg/kg/hr. Upon an elapsed time of 3 hours after the initiation of the continuous injection of pentagastrin, each test compound was filled in gelatin capsules and orally administered. The acidity of sampled gastric juice was measured using an autotitrater, and a product of the acidity and the amount of the gastric juice was recorded as an acid output. Supposing -that an acid output during 1 hour preceding the administration was 100%, acid output over 3 hours ranging from the 1st hour to the 4th hour after the administration of the test compound were converted into percentages (acid output percentages). Based on such acid output percentages, the acid output inhibition rate of each beagle was determined using the below-described formula. An average of such acid output inhibition rates was recorded as the acid inhibition rate of the compound. […] [formula]

CC(C)(C)C(=O)CN1C(=O)[C@H](NC(=O)Nc2cccc(C(C)(C)C(=O)O)c2)CN(C2CCCCC2)c2ccccc21 [Example 5, sodium (R)-2-[3-[3-(1-tert-butylcarbonylmethyl-2-oxo-5-cyclohexyl-1,3,4,5-tetrahydro-2H-1,5-benzodiazepin-3-yl)ureido]phenyl]-2-methylpropionate]
acid secretion inhibition ([1]; 0.1 mg/kg intraduodenal): 48.4%
acid secretion inhibition ([1]; 0.3 mg/kg intraduodenal): 79.3%

CC(C)(C)C(=O)CN1C(=O)C(NC(=O)Nc2cccc(C(C)(C)C(=O)O)c2)CN(C2CCCCC2)c2ccccc21 (racemic) [Example 1, (±)-2-[3-[3-(1-tert-butylcarbonylmethyl-2-oxo-5-cyclohexyl-1,3,4,5-tetrahydro-2H-1,5-benzodiazepin-3-yl)ureido]phenyl]-2-methylpropionic acid]
melting point: 215 to 216 °C (dec.)

CC(C)(C)C(=O)CN1C(=O)[C@H](NC(=O)Nc2cccc(C(C)(C)C(=O)O)c2)CN(C2CCCCC2)c2ccccc21 [Example 2, (R)-(−)-2-[3-[3-(1-tert-butylcarbonylmethyl-2-oxo-5-cyclohexyl-1,3,4,5-tetrahydro-2H-1,5-benzodiazepin-3-yl)ureido]phenyl]-2-methylpropionic acid]
acid secretion inhibition ([1]; 0.3 mg/kg intraduodenal): 72.7%
Ki (CCK-A receptor): 438 nM
Ki (CCK-B receptor): 0.74 nM
acid secretion inhibition [2]: 77.9%
